# Measured values published in paper PMC8151276, “An Integrated Approach toward NanoBRET Tracers for Analysis of GPCR Ligand Engagement” (Molecules, 2021).
# How the values were obtained:
# Format in all cases: binding
# ADRA1A = target: T1, ADRA1A (Homo sapiens, UniProt P35348); assay: NanoBRET screen HiBiT-ADRA1A in HEK293
# T1 construct: purchased Promega (in-house HiBiT-GPCR construct library, NanoBRET)
# T1 sequence (P35348 1-466): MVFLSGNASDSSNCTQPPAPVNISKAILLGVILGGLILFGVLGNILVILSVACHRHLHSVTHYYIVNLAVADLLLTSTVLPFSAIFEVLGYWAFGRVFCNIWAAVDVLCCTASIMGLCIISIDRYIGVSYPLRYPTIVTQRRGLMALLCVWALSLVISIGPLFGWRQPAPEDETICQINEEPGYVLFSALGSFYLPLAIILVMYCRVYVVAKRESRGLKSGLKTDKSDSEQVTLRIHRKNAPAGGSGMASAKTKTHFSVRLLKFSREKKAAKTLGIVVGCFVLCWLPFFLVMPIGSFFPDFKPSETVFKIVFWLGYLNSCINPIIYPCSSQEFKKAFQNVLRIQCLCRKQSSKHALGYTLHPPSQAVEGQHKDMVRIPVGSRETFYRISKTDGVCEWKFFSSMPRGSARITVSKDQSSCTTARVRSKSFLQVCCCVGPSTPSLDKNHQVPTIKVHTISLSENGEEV
# Experimental: (§1) Each tracer candidate was screened across the entire library of HiBiT-GPCR constructs using NanoBRET as the detection modality. As depicted in Figure 4A, the specificity of interactions was evaluated through decrease in BRET due to competitive displacement of a bound tracer by excess parental compound. Each tracer was analyzed for binding to each HiBiT-GPCR fusion in the absence and in the presence of competing parental compound. Briefly, HEK293 cells were transfected with HiBiT-GPCR constructs diluted into promoterless DNA to reduce expression and maximize translocation to the cell surface. Each tracer candidate was then screened at concentrations of 1 μM and 0.1 μM across cells expressing these fusions. Cells were treated for 1.5 h with tracer either alone or in the presence of 20 μM competing parental compound (i.e., control). BRET was measured upon addition of purified LgBiT and subsequent complementation with HiBiT genetically fused to a GPCR. The specificity of interactions was assessed through a decrease in BRET signal due to competitive displacement of the bound tracer. To further gauge the robustness of these interactions, the fold response over the control (i.e., BRETtracer/BRETcontrol) was calculated. We chose a 1.5-fold response, which translates to ≥7-fold signal over noise as the minimal threshold required to score an interaction as positive.
# (§2) HiBiT-GPCR DNA constructs were diluted in 10 mM Tris pH 8 to a final concentration of 0.01 μg/μL, arrayed in 96-well plates and stored at −20 °C. For transfection, HEK293 cells were suspended in Opti-MEM (without phenol red) supplemented with 2% fetal bovine serum (Seradigm) and 100 units/mL penicillin–streptomycin (Gibco) at a final concentration of 220,000 cells/mL and dispensed into white 96-well plates at 90 μL/well. Subsequent transfections and screens were carried using an Agilent Bravo Automated Liquid Handling Platform. First, the 96-well HiBiT DNA arrays were diluted 25-fold in Opti-MEM (without serum or phenol red) to a final concentration of 0.0004 μg/μL and 20 μL of the diluted DNAs were transferred into new 96-well plates. Next, promoterless carrier DNA (1 μg/μL) was diluted 25-fold (0.04 μg/μL) and then dispensed into the diluted arrays at 20 μL/well. Following brief mixing, Viafect transfection reagent (Promega) diluted 16-fold into Opti-MEM was dispensed into the plates at 40 μL/well. After mixing by pipetting, plates were incubated for 10 min on the pipetting station deck. The DNA-transfection reagent complexes were then added to plates containing cells. To facilitate the screen, 10 μL of DNA-transfection reagent complexes were added in duplicates to the top 4 and bottom 4 rows, resulting in two identical 48-well arrays per plate. Plates with transfected cells were incubated for 18–20 h at 37 °C/5% CO2. A screen of each tracer across the entire library using two different concentrations requires duplicate plates of transfected cells. Depending on the number of tracers being screened, transfections can be scaled up using the same ratios. The next day, for each tracer, four 20× screening solutions in tracer dilution buffer (Promega) were prepared: two duplicates at final concentration of 20 μM and two duplicates at a final concentration of 2 μM. […] The four resulting solutions were diluted 4-fold in Opti-MEM without serum or phenol red to generate 5× solutions (5 µM and 0.5 µM tracer +/− 100 μM competing compound). To screen the library, a BioTek MultiFlo FX liquid dispenser was used to dispense 22.5 µL of tracer solution to the top 4 rows and 22.5 µL tracer + competing compound solution to the 4 bottom rows. Plates were briefly mixed on an orbital shaker and incubated for 1.5 h at room temperature. […] Plates were briefly mixed on an orbital shaker and incubated for 15 min to allow complementation.
# HTR1F = target: T2, HTR1F (Homo sapiens, UniProt P30939); assay: NanoBRET screen HiBiT-HTR1F in HEK293
# T2 construct: purchased Promega (in-house HiBiT-GPCR construct library, NanoBRET)
# T2 sequence (P30939 1-366): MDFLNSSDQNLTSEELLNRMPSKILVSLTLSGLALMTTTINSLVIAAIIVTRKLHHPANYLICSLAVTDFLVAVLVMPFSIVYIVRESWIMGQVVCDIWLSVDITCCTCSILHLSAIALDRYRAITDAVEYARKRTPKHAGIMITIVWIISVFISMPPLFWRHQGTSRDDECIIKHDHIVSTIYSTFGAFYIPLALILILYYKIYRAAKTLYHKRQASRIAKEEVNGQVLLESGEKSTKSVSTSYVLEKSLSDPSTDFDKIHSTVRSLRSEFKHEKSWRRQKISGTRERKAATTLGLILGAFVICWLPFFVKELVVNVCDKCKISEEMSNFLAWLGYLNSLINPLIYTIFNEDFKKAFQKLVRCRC
# Experimental: as §1, §2
# DRD1 = target: T3, DRD1 (Homo sapiens, UniProt P21728); assay: NanoBRET screen HiBiT-DRD1 in HEK293
# T3 construct: purchased Promega (in-house HiBiT-GPCR construct library, NanoBRET)
# Experimental: as §1, §2
# ADRA2B = target: T4, ADRA2B (Homo sapiens, UniProt P18089); assay: NanoBRET screen HiBiT-ADRA2B in HEK293
# T4 construct: purchased Promega (in-house HiBiT-GPCR construct library, NanoBRET)
# T4 sequence (P18089 1-450): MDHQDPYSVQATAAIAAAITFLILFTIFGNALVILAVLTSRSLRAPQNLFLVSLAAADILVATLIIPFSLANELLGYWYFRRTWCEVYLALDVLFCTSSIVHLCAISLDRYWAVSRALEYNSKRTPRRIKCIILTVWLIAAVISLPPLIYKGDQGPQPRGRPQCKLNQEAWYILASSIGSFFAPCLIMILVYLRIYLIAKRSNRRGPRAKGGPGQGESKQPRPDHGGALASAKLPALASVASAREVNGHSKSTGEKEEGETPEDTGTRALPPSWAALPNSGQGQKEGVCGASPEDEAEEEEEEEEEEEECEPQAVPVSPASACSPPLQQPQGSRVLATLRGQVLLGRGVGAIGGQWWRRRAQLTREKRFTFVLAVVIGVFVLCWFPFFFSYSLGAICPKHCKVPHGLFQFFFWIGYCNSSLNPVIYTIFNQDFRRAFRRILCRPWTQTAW
# CNR2 = target: T5, CNR2 (Homo sapiens, UniProt P34972); assay: NanoBRET screen HiBiT-CNR2 in HEK293
# T5 construct: purchased Promega (in-house HiBiT-GPCR construct library, NanoBRET)
# Experimental: as §1, §2
# T3 sequence (P21728 whole entry): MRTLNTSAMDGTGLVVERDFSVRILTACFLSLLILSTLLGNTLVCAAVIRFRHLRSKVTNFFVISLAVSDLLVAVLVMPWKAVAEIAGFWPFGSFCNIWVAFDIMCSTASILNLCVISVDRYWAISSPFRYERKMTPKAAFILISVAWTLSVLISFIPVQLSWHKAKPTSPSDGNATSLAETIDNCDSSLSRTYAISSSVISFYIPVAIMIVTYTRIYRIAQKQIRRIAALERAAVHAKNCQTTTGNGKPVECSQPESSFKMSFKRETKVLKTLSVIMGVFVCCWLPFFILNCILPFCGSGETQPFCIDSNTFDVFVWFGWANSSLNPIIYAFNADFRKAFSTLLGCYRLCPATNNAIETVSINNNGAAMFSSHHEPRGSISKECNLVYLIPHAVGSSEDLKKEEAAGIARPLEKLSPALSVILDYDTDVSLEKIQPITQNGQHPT
# T5 sequence (P34972 whole entry): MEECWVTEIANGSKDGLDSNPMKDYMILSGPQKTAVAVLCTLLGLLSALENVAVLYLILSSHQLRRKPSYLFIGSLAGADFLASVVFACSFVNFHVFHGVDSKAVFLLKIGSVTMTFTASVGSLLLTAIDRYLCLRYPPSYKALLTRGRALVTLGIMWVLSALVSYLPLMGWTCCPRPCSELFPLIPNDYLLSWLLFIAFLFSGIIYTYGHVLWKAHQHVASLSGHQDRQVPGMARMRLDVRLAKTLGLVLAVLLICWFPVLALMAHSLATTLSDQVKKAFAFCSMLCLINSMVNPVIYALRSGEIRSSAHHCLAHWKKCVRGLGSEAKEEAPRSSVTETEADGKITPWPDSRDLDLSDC
SMILES,"NanoBRET Fold Response (ADRA1A; ADRA1A, tracer 0.1μM)","NanoBRET Fold Response (ADRA1A; ADRA1A, tracer 1μM)","NanoBRET Fold Response (HTR1F; HTR1F, tracer 0.1μM)","NanoBRET Fold Response (HTR1F; HTR1F, tracer 1μM)","NanoBRET Fold Response (DRD1; DRD1, tracer 0.1μM)","NanoBRET Fold Response (DRD1; DRD1, tracer 1μM)","NanoBRET Fold Response (ADRA2B; ADRA2B, tracer 0.1μM)","NanoBRET Fold Response (ADRA2B; ADRA2B, tracer 1μM)","NanoBRET Fold Response (CNR2; CNR2, tracer 0.1μM)","NanoBRET Fold Response (CNR2; CNR2, tracer 1μM)",other results
CCOC(=O)c1cc(C#N)c(N2CCC(C(=O)NS(=O)(=O)Cc3ccccc3/C=C/C(=O)NCCNC(=O)CCc3ccc4n3[B-](F)(F)[N+]3=C(c5ccc[nH]5)C=CC3=C4)CC2)nc1C [AZD1283-1-NB590],,,,,,,,,,,"NanoBRET Fold Response (ADRA1A; ADRA1A, 0.1μM): 1.06; NanoBRET Fold Response (ADRA1A; ADRA1A, 1μM): 1.06; NanoBRET Fold Response (HTR1F; HTR1F, 0.1μM): 1.04; NanoBRET Fold Response (HTR1F; HTR1F, 1μM): 1.02; NanoBRET Fold Response (DRD1; DRD1, 0.1μM): 1.07; NanoBRET Fold Response (DRD1; DRD1, 1μM): 1.10; NanoBRET Fold Response (ADRA2B; ADRA2B, 0.1μM): 1.09; NanoBRET Fold Response (ADRA2B; ADRA2B, 1μM): 1.05; NanoBRET Fold Response (CNR2; CNR2, 0.1μM): 1.04; NanoBRET Fold Response (CNR2; CNR2, 1μM): 0.91"
CC(C)N(CC[C@H](c1ccccc1)c1cc(CCNC(=O)CCOCCOCCOCCOCCNC(=O)CCc2ccc3n2[B-](F)(F)[N+]2=C(c4ccc[nH]4)C=CC2=C3)ccc1O)C(C)C [Tolterodine-2-NB590],0.97,0.98,0.90,1.13,0.94,1.01,0.95,1.04,0.94,1.11,
CC(C)N(CC[C@H](c1ccccc1)c1cc(CCNC(=O)c2ccc(CNC(=O)CCc3ccc4n3[B-](F)(F)[N+]3=C(c5ccc[nH]5)C=CC3=C4)cc2)ccc1O)C(C)C [Tolterodine-BZ-NB590],1.56,2.17,1.24,1.63,1.28,1.39,1.04,1.13,,0.25,
O=C(CCOCCOCCOCCOCCNC(=O)CCc1ccc2n1[B-](F)(F)[N+]1=C(c3ccc[nH]3)C=CC1=C2)NCCCN1CCN(C2=Nc3ccccc3Oc3ccc(Cl)cc32)CC1 [Loxapine-a-2-NB590],3.76,3.42,1.01,1.07,1.65,2.64,3.38,5.35,0.33,1.25,
COc1ccc2[nH]c(-c3ccc(CNC(=O)CCOCCOCCOCCOCCNC(=O)CCc4ccc5n4[B-](F)(F)[N+]4=C(c6ccc[nH]6)C=CC4=C5)cc3)c(CCNC(C)=O)c2n1 [AzomelatoninICO9-2-NB590],,,,,,,,,,,NanoBRET Fold Response (ADRA1A; 0.1μM tracer): 1.06; NanoBRET Fold Response (ADRA1A; 1μM tracer): 0.94; NanoBRET Fold Response (HTR1F; 0.1μM tracer): 0.92; NanoBRET Fold Response (HTR1F; 1μM tracer): 0.95; NanoBRET Fold Response (DRD1; 0.1μM tracer): 0.98; NanoBRET Fold Response (DRD1; 1μM tracer): 0.94; NanoBRET Fold Response (ADRA2B; 0.1μM tracer): 1.35; NanoBRET Fold Response (ADRA2B; 1μM tracer): 1.12; NanoBRET Fold Response (CNR2; 0.1μM tracer): 0.97; NanoBRET Fold Response (CNR2; 1μM tracer): 1.06
COc1ccccc1N1CCN(CCCCN2C(=O)c3ccc(CNC(=O)CCOCCOCCOCCOCCNC(=O)CCc4ccc5n4[B-](F)(F)[N+]4=C(c6ccc[nH]6)C=CC4=C5)cc3C2=O)CC1 [NAN-190-2-NB590],5.18,4.33,1.29,2.39,1.23,1.53,4.00,5.99,0.81,,
O=C(CCOCCOCCOCCOCCNC(=O)CCc1ccc2n1[B-](F)(F)[N+]1=C(c3ccc[nH]3)C=CC1=C2)NCCCN1CCN(C2=Nc3cc(Cl)ccc3Nc3ccccc32)CC1 [Clozapine-a-2-NB590],,,,,,,,,,,"NanoBRET Fold Response (ADRA1A; ADRA1A, 0.1μM tracer): 3.90; NanoBRET Fold Response (ADRA1A; ADRA1A, 1μM tracer): 3.21; NanoBRET Fold Response (HTR1F; HTR1F, 0.1μM tracer): 1.77; NanoBRET Fold Response (HTR1F; HTR1F, 1μM tracer): 2.34; NanoBRET Fold Response (DRD1; DRD1, 0.1μM tracer): 3.20; NanoBRET Fold Response (DRD1; DRD1, 1μM tracer): 3.32; NanoBRET Fold Response (ADRA2B; ADRA2B, 0.1μM tracer): 7.79; NanoBRET Fold Response (ADRA2B; ADRA2B, 1μM tracer): 7.79; NanoBRET Fold Response (CNR2; CNR2, 0.1μM tracer): 1.06; NanoBRET Fold Response (CNR2; CNR2, 1μM tracer): 1.19"
N#CN=C(NCCCOc1cccc(CN2CCCCC2)c1)NCCNC(=O)CCOCCOCCOCCOCCNC(=O)CCc1ccc2n1[B-](F)(F)[N+]1=C(c3ccc[nH]3)C=CC1=C2 [Aminopotentidine-2-NB590],1.05,1.00,1.07,1.05,1.04,1.06,1.12,1.11,1.00,1.16,
COc1ccccc1N1CCN(CCCCN2C(=O)c3ccc(CNC(=O)CCOCCNC(=O)c4ccc(CNC(=O)CCc5ccc6n5[B-](F)(F)[N+]5=C(c7ccc[nH]7)C=CC5=C6)cc4)cc3C2=O)CC1 [NAN-190-3-NB590],3.94,3.91,2.92,1.93,1.75,1.32,4.24,5.21,1.09,1.15,
